Drawing on ChEMBL document CHEMBL3352142, “Discovery of a new class of cinnamyl-triazole as potent and selective inhibitors of aromatase (cytochrome P450 19A1)” (Bioorg Med Chem Lett, 2014), this text covers Ki for 7 compounds.

In experiment [1] the target is T1, Aromatase (Homo sapiens, UniProt P11511).
T1 sequence (P11511 whole entry): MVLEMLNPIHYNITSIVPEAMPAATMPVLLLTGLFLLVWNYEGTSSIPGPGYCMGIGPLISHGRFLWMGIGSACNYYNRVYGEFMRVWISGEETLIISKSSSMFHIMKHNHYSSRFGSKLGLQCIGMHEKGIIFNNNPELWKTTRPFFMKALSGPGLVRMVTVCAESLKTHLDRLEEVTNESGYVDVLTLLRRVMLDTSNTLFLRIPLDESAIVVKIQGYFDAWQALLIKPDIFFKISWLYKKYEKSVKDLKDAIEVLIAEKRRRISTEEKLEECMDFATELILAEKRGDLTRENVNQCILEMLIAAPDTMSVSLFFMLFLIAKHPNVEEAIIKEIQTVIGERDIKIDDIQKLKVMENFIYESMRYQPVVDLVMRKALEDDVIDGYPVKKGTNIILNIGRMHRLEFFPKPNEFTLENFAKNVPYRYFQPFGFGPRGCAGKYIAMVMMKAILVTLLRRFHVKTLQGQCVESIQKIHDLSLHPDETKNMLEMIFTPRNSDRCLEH
Description: Inhibition of recombinant human CYP19A1 assessed as inhibition of DBF conversion to fluorescein by-product by fluorometry

Experiment [2] addresses T1, Aromatase. Description: Reversible inhibition of recombinant human CYP19A1 assessed as inhibition of DBF conversion to fluorescein by-product by fluorometry.
Experiment [3] deals with T1, Aromatase. The experiment is described as follows: Irreversible inhibition of recombinant human CYP19A1 assessed as inhibition of DBF conversion to fluorescein by-product by fluorometry.

Molecules are shown by their SMILES.

Regarding `CCOC(=O)c1nnn(Cc2ccccc2)c1-c1ccc(C)cc1`, the Ki at Aromatase [1] was 710 nM.
In the case of `CCOC(=O)c1nnn(Cc2cccc(Br)c2)c1-c1ccc(Br)cc1`, at Aromatase [2], the Ki is 20 nM.
Consider `CCOC(=O)c1nnn(Cc2cccc(Br)c2)c1-c1ccccc1`, for which the Ki at Aromatase [1] is 150 nM.
On to `CCOC(=O)c1nnn(Cc2ccccc2)c1-c1ccccc1`, for which the Ki on Aromatase [3] worked out at 1410 nM.
On to `CCOC(=O)c1nnn(Cc2ccccc2)c1-c1ccc(Cl)cc1`, for which, at Aromatase [1], the Ki came out at 360 nM.
`CCOC(=O)c1nnn(Cc2ccccc2)c1-c1ccc(Br)cc1`: at Aromatase [2], the Ki turned out to be 640 nM.
For `CCOC(=O)c1nnn(Cc2ccccc2)c1-c1ccc2c(c1)OCO2`, the Ki at Aromatase [1] was determined as 710 nM.
